Reference: US11185077B2, “Attractants for rodents” (priority 2016, dated 2021)

Experiments:
house mice, Mus musculus = assay: Laboratory T-tube bioassay: behavioral responses of mice (first choice, time spent); format: in vivo; settings: male mice
Text: A laboratory experimental apparatus was constructed to test the behavioral responses of mice to the compositions described herein. The experimental design is depicted in FIG. 4 and includes three clear Plexiglas chambers: release chamber (1: 40 cm×20 cm×30 cm for placement of a mouse at the onset of a bioassay), and response chambers (3a and 3b: each 60 cm×30 cm×40 cm) interconnected by a Pyrex glass T-tube (2; stem: 65 cm long, side arms: 45 cm long, all 10 cm in diameter). Each response chamber housed a test stimulus in a Petri dish (4a, 4b; 3 cm diam.). For each replicate, a single mouse was deprived of food, but not water, for 4-6 h before being placed into chamber 1, which was illuminated by dim red light to facilitate observations of the mouse's position. The mouse was allowed to enter the stem of the T-tube (2) on its own accord in response to test stimuli, which were randomly assigned to response chamber 3a or 3b.
Both response chambers were fitted with a Petri dish (4a, 4b) containing a Whatman #1 filter paper disk (25 mm diam.) treated with a randomly assigned treatment stimulus or control stimulus. For each bioassay, a single mouse was tested and the following data were recorded: (1) the treatment or control chamber the mouse entered first with all four paws (“first-choice data”); and (2) the position of the mouse at each of 30 30-sec intervals after its first entry into the T-tube. Position data were then used to calculate the proportion of time a mouse spent in the treatment or control chamber (“time-spent data”).
Following each replicate, the chambers and T-tube were cleaned with a Percept® disinfectant detergent (Virox Technologies Inc. Mississaugua ON L5N 5M4, Canada) and wiped with 70% ethanol.
First-choice data and the time spent in a trap box quadrant were analyzed using a χ^2 test with Yates' correction for continuity (α=0.05) and the Student's t-test (α=0.05), respectively.
In Experiment 5, the laboratory experimental design of FIG. 4 was used to evaluate the responses of female mice to synthetic androstenone. For Experiment 5, the treatment stimulus consisted of filter paper treated with 4 μg of synthetic androstenone (see Experiments 1 and 2), and the control stimulus consisted of filter paper treated with the 50 μl of ether without androstenone.
In Experiment 6, the laboratory experimental design of FIG. 4 was used to evaluate the responses of male mice to blends of synthetic progesterone and estrogen. For Experiment 6, the treatment stimulus consisted of filter paper treated with a 4-μg blend of the synthetic hormones progesterone and estrogen formulated in 50 μl of ether at a ratio of 100:1 and a control stimulus which consisted of filter paper treated with 50 μl of ether.
In Experiments 9 to 11, the laboratory experimental design of FIG. 4 was used to evaluate the responses of male mice to synthetic progesterone and estrogen. For the Experiments, the treatment stimulus consisted of filter paper treated with a blend of the synthetic progesterone (50 ng) and estrogen (25 ng) (hereinafter “synthetic hormone blend”) (Experiment 9), progesterone alone (75 ng) (Experiment 10) or estrogen alone (75 ng) (Experiment 11) formulated in 50 μl ether. The control stimulus consisted of filter paper treated with 50 μl of ether for each of Experiments 9 to 11.
Experiment 12 used the laboratory experimental apparatus of FIG. 4 to test choices of female mice between filter paper treated with 75 ng of synthetic testosterone (the treatment stimulus) formulated in 50 μl of ether and control filter paper treated with 50 μl of ether. Experiment 13 was identical to Experiment 12 except that the treatment stimulus consisted of filter paper treated with 75 ng of synthetic androstenone.

[1] = tested on: wild house mice, Mus musculus; assay: Field experiments with paired trap boxes: trap captures of wild mice; format: in vivo
[2] = Experiment 11, estrogen alone (75 ng)
[3] = Experiment 10, progesterone alone (75 ng)
[4] = Experiment 22, 750 ng of progesterone

| SMILES | first entry into baited chamber vs control chamber (house mice, Mus musculus; [2]) | responsiveness of male mice compared with progesterone (house mice, Mus musculus; [2]) | time spent in treatment chamber vs control chamber (house mice, Mus musculus; [2]) | captures of wild mice vs control traps ([1]; Experiment 23, 750 ng of estradiol (estrogen)) | first entry into treated chamber vs control chamber (house mice, Mus musculus; [3]) | responses of male mice compared with the blend (house mice, Mus musculus; [3]) | time spent in treated chamber vs control chamber (house mice, Mus musculus; [3]) | captures of adult male mice vs control traps [1, 4] | captures of juvenile male mice vs control traps [1, 4] |
| --- | --- | --- | --- | --- | --- | --- | --- | --- | --- |
| C[C@]12CC[C@@H]3c4ccc(O)cc4CC[C@H]3[C@@H]1CC[C@@H]2O [estrogen, (8R,9S,13S,14S,17S)-13-methyl-6,7,8,9,11,12,14,15,16,17-decahydrocyclopenta[a]phenanthrene-3,17-diol] | significantly more often | more responsive to estrogen than to progesterone | significantly more time | as ineffective as control traps |  |  |  |  |  |
| CC(=O)[C@H]1CC[C@H]2[C@@H]3CCC4=CC(=O)CC[C@]4(C)[C@H]3CC[C@]12C [progesterone] |  |  |  |  | did not significantly choose to first enter | less pronounced | significantly more time | significantly more | significantly more |
